Experiment [1] deals with T1, MAGL (Homo sapiens, UniProt Q99685).
T1 construct: Proteomes (human prefrontal cortex or cell membrane fractions); from tissue
T1 sequence (Q99685 1-303): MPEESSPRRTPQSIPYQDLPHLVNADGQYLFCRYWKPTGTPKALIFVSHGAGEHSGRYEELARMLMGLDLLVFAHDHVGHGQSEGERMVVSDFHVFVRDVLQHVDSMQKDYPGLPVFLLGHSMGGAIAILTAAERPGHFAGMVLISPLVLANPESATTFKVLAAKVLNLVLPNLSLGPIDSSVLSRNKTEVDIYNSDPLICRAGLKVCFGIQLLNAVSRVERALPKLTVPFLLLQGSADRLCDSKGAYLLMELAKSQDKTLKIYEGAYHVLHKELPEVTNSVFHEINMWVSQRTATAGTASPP
Nature of the experiment: In vitro competitive activity-based protein profiling (gel-based, FP-Rh or HT-01 probe). In kind it is biochemical. The protocol:
(§1) Compounds are tested to assess their MAGL and serine hydrolase activity using the following in vitro and in vivo assays.
(§2) Proteomes (human prefrontal cortex or cell membrane fractions) (50 μL, 1.0 mg/mL total protein concentration) were preincubated with varying concentrations of inhibitors at 37° C. After 30 min, FP—Rh or HT-01 (1.0 μL, 50 μM in DMSO) was added and the mixture was incubated for another 30 min at room temperature. Reactions were quenched with SDS loading buffer (15 μL-4×) and run on SDS-PAGE.

Experiment [2] concerns the target T2, MAGL (Mus musculus, UniProt O35678).
T2 construct: from tissue; host or cells: brain of wild-type C57Bl/6J mice
T2 sequence (O35678 1-303): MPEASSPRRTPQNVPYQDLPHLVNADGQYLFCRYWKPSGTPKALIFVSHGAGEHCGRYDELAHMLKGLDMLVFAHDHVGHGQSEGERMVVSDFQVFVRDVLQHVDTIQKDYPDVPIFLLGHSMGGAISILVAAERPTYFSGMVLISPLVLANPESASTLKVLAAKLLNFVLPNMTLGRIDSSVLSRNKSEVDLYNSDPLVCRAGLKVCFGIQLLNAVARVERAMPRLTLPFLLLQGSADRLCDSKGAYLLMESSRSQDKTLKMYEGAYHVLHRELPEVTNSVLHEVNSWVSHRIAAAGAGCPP
Description: Mouse brain proteomes from inhibitor treated mice (oral gavage, brain proteomes analyzed 4 h after administration). In kind it is in vivo, mouse (C57Bl/6J). To be noted: brain proteome 4 h after administration, read-out: % Inh 5 mg/kg MGLL (Mouse). Here is the method:
as §1
Preparation of Mouse Brain Proteomes from Inhibitor Treated Mice.
Inhibitors were administered to wild-type C57Bl/6J by oral gavage in a vehicle of polyethylene glycol. Each animal was sacrificed 4 h following administration and brain proteomes were prepared and analyzed according to previously established methods (See Niphakis, M. J., et al. (2011) ACS Chem. Neurosci. and Long, J. Z., et al. Nat. Chem. Biol. 5:37-44).

The target of the next experiment is T3, MGLL (Mus musculus, UniProt O35678).
T3 construct: Brain; from tissue; host or cells: mouse brain proteome
T3 sequence (O35678 1-303): T2 sequence (O35678 1-303)
Nature of the experiment: In vitro competitive activity-based protein profiling, mouse brain proteome. Format: biochemical. Here is the method:
[Worded in the source for another species; this species is reported under the same test.] as §2

The next experiment has as its target T4, ABHD6 (Mus musculus, UniProt Q8R2Y0).
T4 construct: Brain; from tissue; host or cells: mouse brain proteome
T4 sequence (Q8R2Y0 1-336): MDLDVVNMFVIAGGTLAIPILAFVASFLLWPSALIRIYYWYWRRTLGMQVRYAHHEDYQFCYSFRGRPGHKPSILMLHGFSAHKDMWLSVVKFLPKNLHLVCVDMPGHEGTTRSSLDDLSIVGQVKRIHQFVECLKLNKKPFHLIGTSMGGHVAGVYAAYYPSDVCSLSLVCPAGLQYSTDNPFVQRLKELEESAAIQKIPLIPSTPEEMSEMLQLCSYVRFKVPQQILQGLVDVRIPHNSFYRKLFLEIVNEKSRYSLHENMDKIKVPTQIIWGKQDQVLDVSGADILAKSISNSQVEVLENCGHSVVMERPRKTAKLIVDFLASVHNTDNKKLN
Nature of the experiment: In vitro competitive activity-based protein profiling, mouse brain proteome, ABHD6. In kind it is biochemical. To be noted: for % Inh ABHD6 Brain (Mouse, μM): mouse brain proteome; for IC50: mouse. The protocol: [Worded in the source for another target; this target is reported under the same test.] as §2

Setting [3] is: PC3 proteome, read-out: IC50 MGLL PC3 (Human).
The mark [4] stands for this setting: PFC (prefrontal cortex) proteome.
Where [5] appears, read: PFC (prefrontal cortex) proteome, read-out: IC50 MGLL PFC (Human).

Like-named read-outs stand apart in the source and are kept apart here. A value given as a limit tells only on which side of the number the result lay.

Turning to `CC(C)(C#Cc1c(Cl)cccc1CN1CCCC12CCN(C(=O)OC(C(F)(F)F)C(F)(F)F)CC2)C(=O)O` [Example 1, 4-(2-Chloro-6-((8-(((1,1,1,3,3,3-hexafluoropropan-2-yl)oxy)carbonyl)-1,8-diazaspiro[4.5]decan-1-yl)methyl)phenyl)-2,2-dimethylbut-3-ynoic acid], the IC50 at MAGL [1] (setting [3]) is less than 100 nM. The “% Inh MGLL PFC (Human, μM)” value at MAGL [1] (setting [4]) is “### (### is ≥ 75%)”. In addition, on MAGL [2], the inhibition at 5 mg/kg fell in the range of 25 to 75%.

`O=C(OC(C(F)(F)F)C(F)(F)F)N1CCC2(CCCN2Cc2cc(F)cc(C3(C(=O)O)CCCC3)c2)CC1` [Example 4, 1-(3-Fluoro-5-((8-(((1,1,1,3,3,3-hexafluoropropan-2-yl)oxy)carbonyl)-1,8-diazaspiro[4.5]decan-1-yl)methyl)phenyl)cyclopentane-1-carboxylic acid]: at MAGL [1] (setting [3]), the IC50 was less than 100 nM. For the same compound, at MAGL [1] (setting [4]), the “% Inh MGLL PFC (Human, μM)” value is listed as “### (### is ≥ 75%)”. The inhibition at 5 mg/kg on MAGL [2] is no less than 75%.

For `CC(C)(C#Cc1cc(C(F)(F)F)ccc1CN1CCCC12CCN(C(=O)OC(C(F)(F)F)C(F)(F)F)CC2)C(=O)O` [Example 5, 4-(2-((8-(((1,1,1,3,3,3-Hexafluoropropan-2-yl)oxy)carbonyl)-1,8-diazaspiro[4.5]decan-1-yl)methyl)-5-(trifluoromethyl)phenyl)-2,2-dimethylbut-3-ynoic acid], the IC50 at MAGL [1] (setting [3]) is less than 100 nM. Further, at MAGL [2], the inhibition at 5 mg/kg is no less than 75%.

Consider `O=C(O)CN1CC2CC1CN2c1cc(C(F)(F)F)ccc1CN1CCCC12CCN(C(=O)OC(C(F)(F)F)C(F)(F)F)CC2` (stereo not drawn) [Example 6, 2-(5-(2-((8-(((1,1,1,3,3,3-hexafluoropropan-2-yl)oxy)carbonyl)-1,8-diazaspiro[4.5]decan-1-yl)methyl)-5-(trifluoromethyl)phenyl)-2,5-diazabicyclo[2.2.1]heptan-2-yl)acetic acid], for which the concentration for half-maximal inhibition (IC50) at MAGL [1] (setting [3]) and on MAGL [1] (setting [5]) was less than 100 nM each time. Further, the “% Inh MGLL PFC (Human, μM)” value on MAGL [1] (setting [4]) is “### (### is ≥ 75%)”. For the same compound, the “% Inh MGLL Brain (Mouse, μM)” value at MGLL is “### (### is ≥ 75%)”. In addition, at ABHD6, the “% Inh ABHD6 Brain (Mouse, μM)” value was “# (# is ≤ 25%)”.

On to `O=C(OC(C(F)(F)F)C(F)(F)F)N1CCC2(CCCN2Cc2ccc(C(F)(F)F)cc2C2(C(=O)O)CCCC2)CC1` [Example 7, 1-(2-((8-(((1,1,1,3,3,3-hexafluoropropan-2-yl)oxy)carbonyl)-1,8-diazaspiro[4.5]decan-1-yl)methyl)-5-(trifluoromethyl)phenyl)cyclopentane-1-carboxylic acid], for which, at MAGL [1] (setting [3]), the 50% inhibitory concentration (IC50) is less than 100 nM. For the same compound, the inhibition at 5 mg/kg on MAGL [2] is no less than 75%.

In the case of `CN(Cc1cccc(Cl)c1C1(C(=O)O)CCCC1)C1(C)CCN(C(=O)OC(C(F)(F)F)C(F)(F)F)CC1` [Example 9, 1-(2-Chloro-6-(((1-(((1,1,1,3,3,3-hexafluoropropan-2-yl)oxy)carbonyl)-4-methylpiperidin-4-yl)(methyl)amino)methyl)phenyl)cyclopentane-1-carboxylic acid], at MAGL [1] (setting [3]), the IC50 is less than 100 nM. At MAGL [1] (setting [4]), the “% Inh MGLL PFC (Human, μM)” value is listed as “### (### is ≥ 75%)”. Also, the inhibition at 5 mg/kg at MAGL [2] was no more than 25%.

`O=C(O)C1CCN(Cc2cc(C(F)(F)F)ccc2C(=O)N2CCCC23CCN(C(=O)OC(C(F)(F)F)C(F)(F)F)CC3)CC1` [Example 10, 1-(2-(8-(((1,1,1,3,3,3-Hexafluoropropan-2-yl)oxy)carbonyl)-1,8-diazaspiro[4.5]decane-1-carbonyl)-5-(trifluoromethyl)benzyl)piperidine-4-carboxylic acid]: the “% Inh MGLL PFC (Human, μM)” value at MAGL [1] (setting [4]) is listed as “### (### is ≥ 75%)”. In addition, the inhibition at 5 mg/kg on MAGL [2] was no less than 75%.

For `CN(Cc1ccc(C(F)(F)F)cc1N1CCC(C(=O)O)CC1)C1(C)CCN(C(=O)OC(C(F)(F)F)C(F)(F)F)CC1` [Example 14, 1-(2-(((1-(((1,1,1,3,3,3-Hexafluoropropan-2-yl)oxy)carbonyl)-4-methylpiperidin-4-yl)(methyl)amino)methyl)-5-(trifluoromethyl)phenyl)piperidine-4-carboxylic acid], the IC50 on MAGL [1] (setting [3]) was less than 100 nM. For the same compound, the inhibition at 5 mg/kg at MAGL [2] was no less than 75%.

Regarding `CN(Cc1cc(N2CCCC2)cc(C(F)(F)F)c1)C1(C)CCN(C(=O)OC(C(F)(F)F)C(F)(F)F)CC1` [Example 76, 1,1,1,3,3,3-Hexafluoropropan-2-yl 4-methyl-4-(methyl(3-(pyrrolidin-1-yl)-5-(trifluoromethyl)benzyl)amino) piperidine-1-carboxylate], the IC50 on MAGL [1] (setting [5]) was less than 100 nM; at MGLL, 100 to 1000 nM; at ABHD6 it was greater than 1000 nM.

With `CC1(C(=O)O)CCCN(c2cc(C(F)(F)F)ccc2CN2CC3(CCN(C(=O)OC(C(F)(F)F)C(F)(F)F)CC3)C2)C1` (stereo not drawn) [Example 112, 1-(2-((7-(((1,1,1,3,3,3-Hexafluoropropan-2-yl)oxy)carbonyl)-2,7-diazaspiro[3.5]nonan-2-yl)methyl)-5-(trifluoromethyl)phenyl)-3-methylpiperidine-3-carboxylic acid], at MAGL [1] (setting [3]), the 50% inhibitory concentration (IC50) is less than 100 nM. The inhibition at 5 mg/kg at MAGL [2] is no more than 25%.

As for `CC1(C(=O)O)CCCN(c2cc(CN3CC4(CCN(C(=O)OC(C(F)(F)F)C(F)(F)F)CC4)C3)cc(C(F)(F)F)c2)C1` (stereo not drawn) [Example 114, 1-(3-((7-(((1,1,1,3,3,3-Hexafluoropropan-2-yl)oxy)carbonyl)-2,7-diazaspiro[3.5]nonan-2-yl)methyl)-5-(trifluoromethyl)phenyl)-3-methylpiperidine-3-carboxylic acid], the IC50 on MAGL [1] (setting [3]) and at MAGL [1] (setting [5]) was less than 100 nM throughout. Also, on MAGL [2], the inhibition at 5 mg/kg was 25 to 75%.

Regarding `O=C(O)CN1CC2CC1CN2c1cc(CN2CC3(CCN(C(=O)OC(C(F)(F)F)C(F)(F)F)CC3)C2)cc(C(F)(F)F)c1` (stereo not drawn) [Example 129, 2-(5-{3-[(7-{[(1,1,1,3,3,3-Hexafluoropropan-2-yl)oxy]carbonyl}-2,7-diazaspiro[3.5]nonan-2-yl)methyl]-5-(trifluoromethyl)phenyl}-2,5-diazabicyclo[2.2.1]heptan-2-yl)acetic acid], on MAGL [2], the inhibition at 5 mg/kg was no more than 25%.

With `O=C(O)[C@@H]1CCCN1C1CCN(c2cc(C(F)(F)F)ccc2CN2CCCC23CCN(C(=O)OC(C(F)(F)F)C(F)(F)F)CC3)CC1` [Example 164, (1-(2-((8-(((1,1,1,3,3,3-Hexafluoropropan-2-yl)oxy)carbonyl)-1,8-diazaspiro[4.5]decan-1-yl)methyl)-5-(trifluoromethyl)phenyl)piperidin-4-yl)-L-proline], the “% Inh MGLL PC3 (Human, μM)” value on MAGL [1] (PC3 proteome) is listed as “### (### is ≥ 75%)”. At MGLL, the “% Inh MGLL Brain (Mouse, μM)” value is given as “### (### is ≥ 75%)”. Also, on ABHD6, the “% Inh ABHD6 Brain (Mouse, μM)” value is listed as “# (# is ≤ 25%)”.

Take `O=C(O)C1CCN(c2cc(Cl)ccc2CN2CCC3(CC2)CCN(C(=O)OC(C(F)(F)F)C(F)(F)F)C3)CC1` [Example 194, 1-(5-Chloro-2-((2-(((1,1,1,3,3,3-hexafluoropropan-2-yl)oxy)carbonyl)-2,8-diazaspiro[4.5]decan-8-yl)methyl)phenyl) piperidine-4-carboxylic acid]: the IC50 was less than 100 nM at MAGL [1] (setting [3]), less than 100 nM at MAGL [1] (setting [5]), 100 to 1000 nM at MGLL and greater than 1000 nM on ABHD6.

As to `O=C(O)C1CCN(c2cc(C(F)(F)F)ccc2CN2CCC3(CC2)CCN(C(=O)OC(C(F)(F)F)C(F)(F)F)C3)CC1` [Example 195, 1-(2-((2-(((1,1,1,3,3,3-Hexafluoropropan-2-yl)oxy)carbonyl)-2,8-diazaspiro[4.5]decan-8-yl)methyl)-5-(trifluoromethyl)phenyl)piperidine-4-carboxylic acid], the half-inhibitory concentration (IC50) at MAGL [1] (setting [3]) was less than 100 nM; at MAGL [1] (setting [5]), 100 to 1000 nM; at MGLL, 100 to 1000 nM; on ABHD6, greater than 1000 nM.

For the origin of these results see patent US20210214375A1 (LUNDBECK LA JOLLA RESEARCH CENTER, INC., priority 2017, published 2021).
